Assay results taken from BindingDB's records for doi:10.7270/Q2WS8RN8 (The Scripps Research Institute Molecular Screening Center, 2008).

Target: T1, Signal transducer and activator of transcription 1-alpha/beta (Homo sapiens, UniProt P42224)
T1 sequence (P42224 whole entry): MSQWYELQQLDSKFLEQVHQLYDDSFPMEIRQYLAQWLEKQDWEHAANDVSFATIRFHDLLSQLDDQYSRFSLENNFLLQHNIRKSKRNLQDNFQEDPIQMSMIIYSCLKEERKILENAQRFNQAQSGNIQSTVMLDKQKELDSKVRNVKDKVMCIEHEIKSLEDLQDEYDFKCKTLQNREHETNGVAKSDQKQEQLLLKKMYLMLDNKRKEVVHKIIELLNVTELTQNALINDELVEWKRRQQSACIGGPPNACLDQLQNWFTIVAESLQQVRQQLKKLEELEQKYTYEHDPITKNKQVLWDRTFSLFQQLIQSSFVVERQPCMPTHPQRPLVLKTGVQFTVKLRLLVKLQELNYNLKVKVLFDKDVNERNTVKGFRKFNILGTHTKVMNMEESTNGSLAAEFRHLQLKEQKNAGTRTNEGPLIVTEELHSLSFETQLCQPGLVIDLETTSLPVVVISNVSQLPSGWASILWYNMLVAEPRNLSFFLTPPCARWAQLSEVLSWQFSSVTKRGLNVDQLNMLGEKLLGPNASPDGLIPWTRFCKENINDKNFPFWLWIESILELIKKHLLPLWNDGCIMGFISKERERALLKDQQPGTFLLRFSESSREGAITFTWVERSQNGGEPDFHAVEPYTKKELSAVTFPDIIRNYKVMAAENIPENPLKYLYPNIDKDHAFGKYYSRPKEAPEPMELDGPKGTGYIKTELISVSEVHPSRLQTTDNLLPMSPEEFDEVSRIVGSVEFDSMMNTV
Assay: PubChem AID 1396

Q: How did the IC50 turn out when CCN1C(=O)C(=CNNC(=O)c2ccncc2)C(=O)N(CC)C1=S [SMR000218837] was run?
A: Its IC50 is 4.42 µM.
